The values below come from US12458021B2, “Microbiocidal derivatives” (SYNGENTA CROP PROTECTION AG, priority 2019, dated 2025).

Test [1] deals with Glomerella lagenarium (Colletotrichum lagenarium). Briefly: Glomerella lagenarium (Colletotrichum lagenarium) / liquid culture (anthracnose). The settings on record: Colletotrichum orbiculare, PDB potato dextrose broth, 24° C., 3-4 days after application, read-out: control of Glomerella lagenarium (inhibition of growth, photometric). It is filed as cell-based. As for the experimental part: Example B3: Glomerella lagenarium (Colletotrichum lagenarium)/Liquid Culture (Anthracnose) Conidia of the fungus from cryogenic storage are directly mixed into nutrient broth (PDB potato dextrose broth). After placing a (DMSO) solution of test compound into a microtiter plate (96-well format), the nutrient broth containing the fungal spores is added. The test plates are incubated at 24° C. and the inhibition of growth is measured photometrically 3-4 days after application. […] […]-191.

In test [2] the test system is Monographella nivalis (Microdochium nivale). Briefly: Monographella nivalis (Microdochium nivale) / liquid culture (foot rot cereals). The settings on record: PDB potato dextrose broth, 24° C., 4-5 days after application, read-out: control of Monographella nivalis (inhibition of growth, photometric). It is filed as cell-based. On the procedure: Example B7: Monographella nivalis (Microdochium nivale)/Liquid Culture (Foot Rot Cereals) Conidia of the fungus from cryogenic storage are directly mixed into nutrient broth (PDB potato dextrose broth). After placing a (DMSO) solution of test compound into a microtiter plate (96-well format), the nutrient broth containing the fungal spores is added. The test plates are incubated at 24° C. and the inhibition of growth is determined photometrically 4-5 days after application. […] […]-190.

The subject of test [3] is Mycosphaerella graminicola (Septoria tritici). Kind of test: Mycosphaerella graminicola (Septoria tritici) / liquid culture (Septoria blotch). It is filed as cell-based. The settings on record: Zymoseptoria tritici, PDB potato dextrose broth, 24° C., 4-5 days after application, read-out: control of Mycosphaerella graminicola (inhibition of growth, photometric). As for the experimental part: Example B15: Mycosphaerella graminicola (Septoria tritici)/Liquid Culture (Septoria Blotch) Conidia of the fungus from cryogenic storage are directly mixed into nutrient broth (PDB potato dextrose broth). After placing a (DMSO) solution of test compound into a microtiter plate (96-well format), the nutrient broth containing the fungal spores is added. The test plates are incubated at 24° C. and the inhibition of growth is determined photometrically 4-5 days after application. […] […]-191.

Test [4] has as its system Blumeria graminis f. sp. tritici (Erysiphe graminis f. sp. tritici). Kind of test: Blumeria graminis f. sp. tritici / wheat / leaf disc preventative (powdery mildew on wheat). The test is classed as in vivo. The settings on record: foliar, wheat leaf segments cv. Kanzler, inoculated 1 day after application, assessed 6-8 days after application, read-out: control of Blumeria graminis f. sp. tritici (percent disease control compared to untreated). From the text:
Example B4: Blumeria graminis f. sp. tritici (Erysiphe graminis f. sp. tritici)/Wheat/Leaf Disc Preventative (Powdery Mildew on Wheat) Wheat leaf segments cv. Kanzler are placed on agar in a multiwell plate (24-well format) and sprayed with the formulated test compound diluted in water. The leaf disks are inoculated by shaking powdery mildew infected plants above the test plates 1 day after application. […] […]-192.

In general, inhibition refers to the drop in the measured response relative to a control, in per cent. `CC1(C)CCC1NC(=O)c1nc(Nc2cc(F)cc(F)c2)ccc1O` (stereo not shown) [Compound P-2, 6-(3,5-difluoroanilino)-N-(2,2-dimethylcyclobutyl)-3-hydroxy-pyridine-2-carboxamide]: the inhibition at 20 ppm in test [1], in test [2] and in test [3] was at least 80% throughout.

Turning to `O=C(NC1CCC12CCCC2)c1nc(Nc2cc(F)nc(F)c2)ccc1O` (stereo not shown) [Compound P-3, 6-[(2,6-difluoro-4-pyridyl)amino]-3-hydroxy-N-spiro[3.4]octan-3-yl-pyridine-2-carboxamide], the inhibition at 20 ppm in test [1], in test [2] and in test [3] was at least 80% each time.

Turning to `COc1cnc(Nc2cc(F)cc(F)c2)nc1C(=O)NCCC(C)C` [Compound P-8, 2-(3,5-difluoroanilino)-N-isopentyl-5-methoxy-pyrimidine-4-carboxamide], the inhibition at 20 ppm in test [1], in test [2] and in test [3] was at least 80% in each case.

With `COc1cnc(Nc2cc(F)nc(F)c2)nc1C(=O)NCCC(C)C` [Compound P-9, 2-[(2,6-difluoro-4-pyridyl)amino]-N-isopentyl-5-methoxy-pyrimidine-4-carboxamide], the pest or weed control at 200 ppm in test [4] is at least 80%.

As to `COc1cnc(Nc2cc(F)nc(F)c2)nc1C(=O)NC1CCC1(C)C` (stereo not shown) [Compound P-11, 2-[(2,6-difluoro-4-pyridyl)amino]-N-(2,2-dimethylcyclobutyl)-5-methoxy-pyrimidine-4-carboxamide], in test [4], the pest or weed control at 200 ppm is at least 80%.

On to `CC1(C)CCC1NC(=O)c1nc(Nc2ccccc2)ccc1O` (stereo not shown) [Compound P-16, 6-anilino-N-(2,2-dimethylcyclobutyl)-3-hydroxy-pyridine-2-carboxamide], for which the inhibition at 20 ppm in test [1], in test [2] and in test [3] was at least 80% throughout.

For `CC1(C)CCC1NC(=O)c1nc(Nc2ccnc(F)c2)ccc1O` (stereo not shown) [Compound P-18, N-(2,2-dimethylcyclobutyl)-6-[(2-fluoro-4-pyridyl)amino]-3-hydroxy-pyridine-2-carboxamide], the inhibition at 20 ppm in test [1], in test [2] and in test [3] was at least 80% in each case.

With `COc1ccc(Nc2cnsc2)nc1C(=O)NCc1ccc(Cl)cc1` [Compound P-37, N-[(4-chlorophenyl)methyl]-6-(isothiazol-4-ylamino)-3-methoxy-pyridine-2-carboxamide], the inhibition at 20 ppm in test [1], in test [2] and in test [3] was at least 80% each time.

On to `COc1ccc(Nc2cnsc2)nc1C(=O)NC(C)COc1cc(F)cc(F)c1` (stereo not shown) [Compound P-38, N-[2-(3,5-difluorophenoxy)-1-methyl-ethyl]-6-(isothiazol-4-ylamino)-3-methoxy-pyridine-2-carboxamide], for which the inhibition at 20 ppm in test [2] and in test [3] was at least 80% each time.

For `COc1ccc(Nc2cnsc2)nc1C(=O)NCCOc1ccc(Cl)cc1Cl` [Compound P-39, N-[2-(2,4-dichlorophenoxy)ethyl]-6-(isothiazol-4-ylamino)-3-methoxy-pyridine-2-carboxamide], the inhibition at 20 ppm in test [1], in test [2] and in test [3] was at least 80% throughout.

With `COc1ccc(NCC2CC2)nc1C(=O)NCC(C)(C)C` [Compound P-40, 6-(cyclopropylmethylamino)-N-(2,2-dimethylpropyl)-3-methoxy-pyridine-2-carboxamide], the inhibition at 20 ppm in test [2] and in test [3] was at least 80% throughout.

As to `COc1ccc(NCC(C)(C)C)nc1C(=O)NCC(C)(C)C` [Compound P-43, N-(2,2-dimethylpropyl)-6-(2,2-dimethylpropylamino)-3-methoxy-pyridine-2-carboxamide], the inhibition at 20 ppm in test [2] and in test [3] was at least 80% each time.

`COc1ccc(Nc2cc(F)nc(F)c2)nc1C(=O)NCc1cncn1Cc1ccccc1` [Compound P-48, N-[(3-benzylimidazol-4-yl)methyl]-6-[(2,6-difluoro-4-pyridyl)amino]-3-methoxy-pyridine-2-carboxamide]: the pest or weed control at 200 ppm in test [4] is at least 80%.

`COc1ccc(Nc2cc(F)nc(F)c2)nc1C(=O)NC1COC(C2CC2)C1` (stereo not shown) [Compound P-50, N-(5-cyclopropyltetrahydrofuran-3-yl)-6-[(2,6-difluoro-4-pyridyl)amino]-3-methoxy-pyridine-2-carboxamide]: the pest or weed control at 200 ppm in test [4] is at least 80%.

As for `COc1ccc(Nc2cc(F)nc(F)c2)nc1C(=O)NCc1nn(C)c2ncccc12` [Compound P-51, 6-[(2,6-difluoro-4-pyridyl)amino]-3-methoxy-N-[(1-methylpyrazolo[3,4-b]pyridin-3-yl)methyl]pyridine-2-carboxamide], the pest or weed control at 200 ppm in test [4] is at least 80%.

With `COc1ccc(Nc2cc(F)nc(F)c2)nc1C(=O)NCC1(C)CCOC1` (stereo not shown) [Compound P-53, 6-[(2,6-difluoro-4-pyridyl)amino]-3-methoxy-N-[(3-methyltetrahydrofuran-3-yl)methyl]pyridine-2-carboxamide], the pest or weed control at 200 ppm in test [4] is at least 80%.

`COc1ccc(Nc2cc(F)nc(F)c2)nc1C(=O)NC1C2CCOC2C1(C)C` (stereo not shown) [Compound P-54, 6-[(2,6-difluoro-4-pyridyl)amino]-N-(7,7-dimethyl-2-oxabicyclo[3.2.0]heptan-6-yl)-3-methoxy-pyridine-2-carboxamide]: the pest or weed control at 200 ppm in test [4] was at least 80%.

Consider `COc1ccc(Nc2cc(F)cc(F)c2)nc1C(=O)NC1CC2(COC2)C1` [Compound P-64, 6-(3,5-difluoroanilino)-3-methoxy-N-(2-oxaspiro[3.3]heptan-6-yl)pyridine-2-carboxamide], for which the pest or weed control at 200 ppm in test [4] was at least 80%.

In the case of `COc1ccc(Nc2cc(F)cc(F)c2)nc1C(=O)NCC1(c2ccc(Cl)nc2)CC1` [Compound P-73, N-[[1-(6-chloro-3-pyridyl)cyclopropyl]methyl]-6-(3,5-difluoroanilino)-3-methoxy-pyridine-2-carboxamide], the inhibition at 20 ppm in test [1], in test [2] and in test [3] was at least 80% throughout.

As to `CCON=C(CNC(=O)c1nc(Nc2cc(F)cc(F)c2)ccc1OC)c1ncc(Cl)cc1Cl` [Compound P-75, N-[2-(3,5-dichloro-2-pyridyl)-2-ethoxyimino-ethyl]-6-(3,5-difluoroanilino)-3-methoxy-pyridine-2-carboxamide], the inhibition at 20 ppm in test [1], in test [2] and in test [3] was at least 80% in each case.

Take `C#CCOc1ccc(Nc2cc(F)cc(F)c2)nc1C(=O)NC(C)(C)C` [Compound P-96, N-tert-butyl-6-(3,5-difluoroanilino)-3-prop-2-ynoxy-pyridine-2-carboxamide]: the inhibition at 20 ppm in test [2] and in test [3] was at least 80% in each case.

`COc1ccc(Nc2ccc(Cl)c(Cl)c2)nc1C(=O)NCC(C)(C)C` [Compound P-131, 6-(3,4-dichloroanilino)-N-(2,2-dimethylpropyl)-3-methoxy-pyridine-2-carboxamide]: the inhibition at 20 ppm in test [1] and in test [2] was at least 80% each time.

`COc1ccc(Nc2ccc(F)cc2)nc1C(=O)NCC(C)(C)C` [Compound P-133, N-(2,2-dimethylpropyl)-6-(4-fluoroanilino)-3-methoxy-pyridine-2-carboxamide]: the inhibition at 20 ppm in test [1], in test [2] and in test [3] was at least 80% each time.

For `COc1ccc(Nc2ccc(Cl)c(C)c2)nc1C(=O)NCC(C)(C)C` [Compound P-138, 6-(4-chloro-3-methyl-anilino)-N-(2,2-dimethylpropyl)-3-methoxy-pyridine-2-carboxamide], the inhibition at 20 ppm in test [1] and in test [2] was at least 80% each time.

As for `COc1ccc(Nc2cccc(C)c2)nc1C(=O)NCC(C)(C)C` [Compound P-140, N-(2,2-dimethylpropyl)-3-methoxy-6-(3-methylanilino)pyridine-2-carboxamide], the inhibition at 20 ppm in test [1], in test [2] and in test [3] was at least 80% throughout.

Regarding `COc1ccc(Nc2ccc(C(F)(F)F)cc2)nc1C(=O)NC(C)(C)C` [Compound P-150, N-tert-butyl-3-methoxy-6-[4-(trifluoromethyl)anilino]pyridine-2-carboxamide], the inhibition at 20 ppm in test [1] and in test [2] was at least 80% each time.
